Assay results: patent US20080051457A1, “Optically Active Phthalamide Derivative, Agricultural or Horticultural Insecticide, and Method of Using the Same” (priority 2004, published 2008)

How the values were obtained:
[1] = system: Common White (Pieris Rapae); experiment: Comparative Test 2: control of common white on cabbage by prick-in-hole application at transplanting; type: in vivo; settings: Dosage 10 mgAI/plant, 27 days after the transplanting
Procedure: An agent containing, as an active ingredient (AI), each of the compounds shown in the table and a comparative compound 1 (the compound with Compound No. 216 described in JP-A-2001-131141), was put into a prick-in-hole on the ground, and then cabbage seedlings (Variety: YR Seitoku) transplanted onto the treated hole (at the end of April). 27 days after the transplanting, the number of larvae of common white was counted. The control value was calculated according to the expression indicated below, and it was then evaluated in accordance with the criterion noted in Comparative test 1 above. One test group consisted of 20 cabbage loaves. [formula]

[2] = system: Diamond Back Moth (Plutella xylostella); experiment: Test Example 1: insecticidal activity on diamond back moth, cabbage leaf disc dip; type: in vivo; settings: foliar, 192 h, third instar larvae, eight days after the inoculation, read-out: insecticidal activity judged from mortality
Excerpt: (§1) A cabbage leaf disc (variety: Shikidori) cut into 7 cm-diameter was dipped for about 30 seconds into a chemical solution prepared by diluting a preparation containing each compound listed in Tables 1 and 2 as an active ingredient to adjust the concentration to 50 ppm. After dried, it was put into a plastic Petri dish with a diameter of 9 cm and inoculated with ten of the third instar larvae of diamond back moths. Eight days after the inoculation, the dead and alive larvae were counted. The mortality was calculated according to the following equation and the insecticidal activity was judged according to the criterion shown below. The test was carried out with three replications under the condition of 25° C., 50-60% RH and 16L-8D photoperiod. [formula]

[3] = system: Common Cutworm (Spodoptera litura); experiment: Test Example 2: insecticidal activity on common cutworm, cabbage leaf disc dip; type: in vivo; settings: foliar, 192 h, second instar larvae, eight days after the inoculation, read-out: insecticidal activity judged from mortality
Excerpt: as §1, with “second” for “third”, “common cutworm.” for “diamond back moths.”, “calculated” for “calculated according to the following equation”, “in” for “according to”, “same manner as in Test Example 1.” for “criterion shown below.”, “photoperiod.” for “photoperiod. [formula]”

[4] = logP (pH2.3), physical properties of Tables 1 to 3; type: physicochemical; settings: for Physical properties: logP: Table 1
Excerpt: However, the present invention is not limited to these compounds. In the tables, the term “physical properties” means a melting point or logp. The symbol “Me” represents a methyl group, “Et” represents an ethyl group, “Pr” represents a propyl group, “-n” represents normal, and “-i” represents iso.

Compound | Physical properties logP(pH2.3) [4] | also measured
Cc1cc(C(F)(C(F)(F)F)C(F)(F)F)ccc1NC(=O)c1cccc(I)c1C(=O)N[C@@H](C)C[S+](C)[O-] (stereo partly drawn) [Compound 1-4] | – | Evaluation of control value (27 days later) [1]: 10 (Mortality 91%-100%)
Cc1cc(C(F)(C(F)(F)F)C(F)(F)F)ccc1NC(=O)c1cccc(I)c1C(=O)N[C@@H](C)CS(C)(=O)=O [Compound 1-5] | – | Evaluation of control value (27 days later) [1]: 10 (Mortality 91%-100%)
CSC[C@H](C)NC(=O)c1c(I)cccc1C(=O)Nc1ccc(OC(F)(F)F)cc1C [Compound 1-42, (S)-3-iodo-N^1-(2-methyl-4-trifluoromethoxyphenyl)-N^2-(1-methyl-2-methylthioethyl)phthalamide] | – | mortality at 50 ppm [2]: 100%; mortality at 50 ppm [3]: 100%
Cc1cc(OC(F)(F)F)ccc1NC(=O)c1cccc(I)c1C(=O)N[C@@H](C)CS(C)(=O)=O [Compound 1-44, (S)-3-iodo-N′-(2-methyl-4-trifluoromethoxyphenyl)-N^2— (1-methyl-2-methylsulfonylethyl)phthalamide] | – | mortality at 50 ppm [2]: 100%; mortality at 50 ppm [3]: 100%
Cc1cc(C(F)(C(F)(F)F)C(F)(F)F)ccc1NC(=O)c1cccc(Br)c1C(=O)N[C@@H](C)CS(C)(=O)=O [Compound 1-74] | – | Evaluation of control value (27 days later) [1]: 10 (Mortality 91%-100%)
Cc1cc(C(F)(C(F)(F)F)C(F)(F)F)ccc1NC(=O)c1cccc(Cl)c1C(=O)N[C@@H](C)CS(C)(=O)=O [Compound 1-77] | – | Evaluation of control value (27 days later) [1]: 10 (Mortality 91%-100%)
Cc1c(NC(=O)c2cccc(Cl)c2C(=O)N[C@@H](C)CS(C)(=O)=O)ccc(C(F)(F)C(F)(F)F)c1F [Compound 1-215] | – | Physical properties: logP [4]: 2.82
CCc1cc(C(F)(C(F)(F)F)C(F)(F)F)ccc1NC(=O)c1cccc(Cl)c1C(=O)N[C@@H](C)CSC [Compound 1-216] | – | Physical properties: logP [4]: 4.36
CCc1cc(C(F)(C(F)(F)F)C(F)(F)F)ccc1NC(=O)c1cccc(Cl)c1C(=O)N[C@@H](C)CS(C)(=O)=O [Compound 1-218] | – | Physical properties: logP [4]: 3.26
CCc1cc(C(F)(C(F)(F)F)C(F)(F)F)ccc1NC(=O)c1cccc(Br)c1C(=O)N[C@@H](C)CSC [Compound 1-219] | – | Physical properties: logP [4]: 4.42
CCc1cc(C(F)(C(F)(F)F)C(F)(F)F)ccc1NC(=O)c1cccc(Br)c1C(=O)N[C@@H](C)CS(C)(=O)=O [Compound 1-221] | – | Physical properties: logP [4]: 3.31
CC[C@@H](CSC)NC(=O)c1c(Cl)cccc1C(=O)Nc1ccc(C(F)(C(F)(F)F)C(F)(F)F)cc1C [Compound 1-339] | 4.47 | –
CC[C@@H](CS(C)(=O)=O)NC(=O)c1c(Cl)cccc1C(=O)Nc1ccc(C(F)(C(F)(F)F)C(F)(F)F)cc1C [Compound 1-341] | 3.31 | –
CC[C@@H](CSC)NC(=O)c1c(Br)cccc1C(=O)Nc1ccc(C(F)(C(F)(F)F)C(F)(F)F)cc1C [Compound 1-342] | 4.54 | –
CC[C@@H](C[S+](C)[O-])NC(=O)c1c(Br)cccc1C(=O)Nc1ccc(C(F)(C(F)(F)F)C(F)(F)F)cc1C (stereo partly drawn) [Compound 1-343] | 2.83 | –
CC[C@@H](CS(C)(=O)=O)NC(=O)c1c(Br)cccc1C(=O)Nc1ccc(C(F)(C(F)(F)F)C(F)(F)F)cc1C [Compound 1-344] | 3.37 | –
CC[C@@H](CSC)NC(=O)c1c(I)cccc1C(=O)Nc1ccc(C(F)(C(F)(F)F)C(F)(F)F)cc1C [Compound 1-345] | 4.62 | –
CC[C@@H](C[S+](C)[O-])NC(=O)c1c(I)cccc1C(=O)Nc1ccc(C(F)(C(F)(F)F)C(F)(F)F)cc1C (stereo partly drawn) [Compound 1-346] | 2.90 | –
CC[C@@H](CS(C)(=O)=O)NC(=O)c1c(I)cccc1C(=O)Nc1ccc(C(F)(C(F)(F)F)C(F)(F)F)cc1C [Compound 1-347] | 3.45 | –

Compound | Physical properties logP(pH2.3) [4] | also measured
CSC[C@@H](NC(=O)c1c(Cl)cccc1C(=O)Nc1ccc(C(F)(C(F)(F)F)C(F)(F)F)cc1C)C(C)C [Compound 1-348] | 4.77 | –
Cc1cc(C(F)(C(F)(F)F)C(F)(F)F)ccc1NC(=O)c1cccc(Cl)c1C(=O)N[C@H](C[S+](C)[O-])C(C)C (stereo partly drawn) [Compound 1-349] | 3.03 | –
Cc1cc(C(F)(C(F)(F)F)C(F)(F)F)ccc1NC(=O)c1cccc(Cl)c1C(=O)N[C@H](CS(C)(=O)=O)C(C)C [Compound 1-350] | 3.54 | –
CSC[C@@H](NC(=O)c1c(Br)cccc1C(=O)Nc1ccc(C(F)(C(F)(F)F)C(F)(F)F)cc1C)C(C)C [Compound 1-351] | 4.80 | –
Cc1cc(C(F)(C(F)(F)F)C(F)(F)F)ccc1NC(=O)c1cccc(Br)c1C(=O)N[C@H](C[S+](C)[O-])C(C)C (stereo partly drawn) [Compound 1-352] | 3.06 | –
Cc1cc(C(F)(C(F)(F)F)C(F)(F)F)ccc1NC(=O)c1cccc(Br)c1C(=O)N[C@H](CS(C)(=O)=O)C(C)C [Compound 1-353] | 3.62 | –
CSC[C@@H](NC(=O)c1c(I)cccc1C(=O)Nc1ccc(C(F)(C(F)(F)F)C(F)(F)F)cc1C)C(C)C [Compound 1-354] | 4.97 | –
Cc1cc(C(F)(C(F)(F)F)C(F)(F)F)ccc1NC(=O)c1cccc(I)c1C(=O)N[C@H](C[S+](C)[O-])C(C)C (stereo partly drawn) [Compound 1-355] | 3.13 | –
Cc1cc(C(F)(C(F)(F)F)C(F)(F)F)ccc1NC(=O)c1cccc(I)c1C(=O)N[C@H](CS(C)(=O)=O)C(C)C [Compound 1-356] | 3.70 | –
CSC[C@H](CC(C)C)NC(=O)c1c(Cl)cccc1C(=O)Nc1ccc(C(F)(C(F)(F)F)C(F)(F)F)cc1C [Compound 1-357] | 5.11 | –
Cc1cc(C(F)(C(F)(F)F)C(F)(F)F)ccc1NC(=O)c1cccc(Cl)c1C(=O)N[C@@H](CC(C)C)C[S+](C)[O-] (stereo partly drawn) [Compound 1-358] | 3.27 | –
Cc1cc(C(F)(C(F)(F)F)C(F)(F)F)ccc1NC(=O)c1cccc(Cl)c1C(=O)N[C@@H](CC(C)C)CS(C)(=O)=O [Compound 1-359] | 3.77 | –
CSC[C@H](CC(C)C)NC(=O)c1c(Br)cccc1C(=O)Nc1ccc(C(F)(C(F)(F)F)C(F)(F)F)cc1C [Compound 1-360] | 5.16 | –
Cc1cc(C(F)(C(F)(F)F)C(F)(F)F)ccc1NC(=O)c1cccc(Br)c1C(=O)N[C@@H](CC(C)C)C[S+](C)[O-] (stereo partly drawn) [Compound 1-361] | 3.30 | –
Cc1cc(C(F)(C(F)(F)F)C(F)(F)F)ccc1NC(=O)c1cccc(Br)c1C(=O)N[C@@H](CC(C)C)CS(C)(=O)=O [Compound 1-362] | 3.82 | –
CSC[C@H](CC(C)C)NC(=O)c1c(I)cccc1C(=O)Nc1ccc(C(F)(C(F)(F)F)C(F)(F)F)cc1C [Compound 1-363] | 5.24 | –
Cc1cc(C(F)(C(F)(F)F)C(F)(F)F)ccc1NC(=O)c1cccc(I)c1C(=O)N[C@@H](CC(C)C)C[S+](C)[O-] (stereo partly drawn) [Compound 1-364] | 3.39 | –
Cc1cc(C(F)(C(F)(F)F)C(F)(F)F)ccc1NC(=O)c1cccc(I)c1C(=O)N[C@@H](CC(C)C)CS(C)(=O)=O [Compound 1-365] | 3.87 | –
